Experiments:
[1] = target: T1, chimeric protein PPARγ-Gal4 (Homo sapiens, UniProt P37231); experiment: PPAR activation, Gal4 chimera luciferase reporter in co-transfected CV-1 cells; format: cell-based; conditions: 50 μM, 18 hours contact, relative to control cells without product
T1 construct: Gal4 (fusion partner); expressed in transfected cells; host or cells: CV-1 cells (monkey kidney cells)
T1 sequence (P37231 238-503 limits assumed): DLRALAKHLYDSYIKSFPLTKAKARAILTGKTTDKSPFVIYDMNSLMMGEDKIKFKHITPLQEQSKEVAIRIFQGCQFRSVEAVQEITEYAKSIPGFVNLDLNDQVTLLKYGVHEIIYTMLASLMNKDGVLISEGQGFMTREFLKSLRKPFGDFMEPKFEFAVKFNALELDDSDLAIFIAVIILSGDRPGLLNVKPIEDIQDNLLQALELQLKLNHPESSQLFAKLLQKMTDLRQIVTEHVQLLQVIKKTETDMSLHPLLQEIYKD
Protocol: (§1) The measurement of the PPAR activation was performed according to a technique described by Lehmann et al. (1995, J. Biol. Chem. 270: 12953-12956).
(§2) CV-1 cells (monkey kidney cells) are co-transfected with an expression vector for the chimeric proteins PPARα-Gal4 or PPARγ-Gal4 and with a “reporter” plasmid that allows the expression of the luciferase gene placed under the control of a promoter containing Gal4 response elements.
(§3) The cells are plated into 96-well microplates and co-transfected using a commercial reagent with the reporter plasmid (pG5-tk-pGL3) and the expression vector for the chimeric protein (PPARα-Gal4 or PPARγ-Gal4). After incubating for 4 hours, whole culture medium (comprising 10% foetal calf serum) is added to the wells. After 24 hours, the medium is removed and replaced with whole medium comprising the test products (50 μM final). The products are left in contact with the cells for 18 hours. The cells are then lysed and the luciferase activity is measured using a luminometer. A PPAR activation factor can then be calculated by means of the activation of the expression of the reporter gene induced by the product (relative to the control cells that have not received any product).

[2] = target: T2, chimeric protein PPARα-Gal4 (Homo sapiens, UniProt Q07869); experiment: as above; format: cell-based; conditions: 50 μM, 18 hours contact, relative to control cells without product
T2 construct: Gal4 (fusion partner); expressed in transfected cells; host or cells: CV-1 cells (monkey kidney cells)
T2 sequence (Q07869 239-466 limits assumed): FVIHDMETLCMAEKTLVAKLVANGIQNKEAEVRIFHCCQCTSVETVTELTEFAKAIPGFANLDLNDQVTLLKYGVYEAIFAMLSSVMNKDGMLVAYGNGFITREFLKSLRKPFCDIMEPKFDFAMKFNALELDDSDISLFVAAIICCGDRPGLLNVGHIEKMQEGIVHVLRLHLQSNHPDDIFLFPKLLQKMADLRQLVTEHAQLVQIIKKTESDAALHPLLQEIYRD
Protocol: as §1, §2, §3

[3] = system: vector expressing Gal4 alone; experiment: Luciferase reporter control without the PPAR ligand binding domain in CV-1 cells; format: cell-based
Protocol: as §2
as §3, with “The products are left in contact with the cells for 18 hours.” left out
By way of example, the compound of Example 1, at a concentration of 50 μM, activates the chimeric protein PPARα-Gal4 by factor of 18, and the chimeric protein PPARγ-Gal4 by a factor of 39. In the absence of the binding domain for the PPAR α or γ ligand (vector expressing Gal4 alone), the luciferase activity measured in the presence of this product is zero.

SMILES	PPAR activation factor (activation of the chimeric protein PPARγ-Gal4) [1]	PPAR activation factor (activation of the chimeric protein PPARα-Gal4) [2]	luciferase activity in the absence of the binding domain for the PPAR α or γ ligand [3]	melting point
CCCCCCc1cc2c(cc1OCCCC(=O)O)C(=O)CC2 [Example 1, 4-(6-hexyl-3-oxoindan-5-yloxy)butyric acid]	39	18	zero	
CCCCCCc1cc2c(cc1OCCCC(=O)O)C(=NO)CC2 [Example 24, 4-(6-hexyl-3-(hydroxyimino)-5-indanyloxy]butyric acid]				148 °C
CCCCCCc1cc2c(cc1NCC(=O)O)C(=O)CC2 [Example 36, (6-Hexyl-3-oxoindan-5-ylamino)acetic acid]				110 °C
CCCCCCc1cc2c(cc1NCC(=O)O)C(=O)CC2 [Example 38, (6-Hexyl-3-oxoindan-5-ylamino)acetic acid]				144 °C
CCCCCCc1cc2c(cc1SCCCC(=O)O)C(=O)CC2 [Example 42, 4-(6-hexyl-3-oxoindan-5-ylsulfanyl)butyric acid]				100 °C

— patent US20060111445A1, “Novel carboxylic acids and derivatives for the treatment of and preventing diabetes and dyslipidaemia” (priority 2003, published 2006)
